Earlier results as cited in patent publication US10159714B2, “Compositions, devices and methods of use thereof for the treatment of cancers” (Intarcia Therapeutics, Inc., priority 2011, dated 2018).
Where no end group is shown, it is not given here.

Legend:
[1] = test system: gonadotropin secretion / testosterone
[2] = test system: prostatic tumors in Noble and Dunning male rats and DMBA-induced mammary tumors in female rats; conditions: hormone-dependent tumors in rats
fasting hyperglycemia = conditions: type 2 diabetic patients

| Compound | time to decrease of LH, FSH and testosterone after initiation of treatment ([1]; continuous administration) | oral activity ([1]; in vivo, po) | testosterone level ([1]; males, continuous administration) | tumor growth [2] | effect on fasting hyperglycemia (fasting hyperglycemia) |
| --- | --- | --- | --- | --- | --- |
| CCNC(=O)[C@@H]1CCCN1C(=O)[C@H](CCCNC(=N)N)NC(=O)[C@H](CC(C)C)NC(=O)[C@@H](CC(C)C)NC(=O)[C@H](Cc1ccc(O)cc1)NC(=O)[C@H](CO)NC(=O)[C@H](Cc1c[nH]c2ccccc12)NC(=O)[C@H](Cc1c[nH]cn1)NC(=O)[C@@H]1CCC(=O)N1 [leuprolide acetate] | two to six | not active when given orally | reduced to castrate levels | inhibition of the growth |  |
| GLP-1(7-37) (HAEGTFTSDVSSYLEGQAAKEFIAWLVKGRG; Glucagon-like peptide 1(7-37); UniProt P01275 98-128, looked up) [form of the GLP-1 peptide] |  |  |  |  | normalize fasting hyperglycemia |
| glucagon-like peptide-1 (7-36) amide (HAEGTFTSDVSSYLEGQAAKEFIAWLVKGR-NH2; listed as Homo sapiens) [GLP-1(7-36)amide] |  |  |  |  | normalize fasting hyperglycemia |
